Measurements taken from US8436012B2, “Imidazopyridin-2-one derivatives” (Daiichi Sankyo Company, Limited, priority 2008, dated 2013).

Columns and labels:
[1] = target: T1, human mTOR (Homo sapiens, UniProt P42345); assay: mTOR Kinase Activity Inhibition Test; type: biochemical; conditions: His-tagged mTOR (1362C), biotinylated peptide substrate, ATP, 3 hours at room temperature, fluorescence resonance energy transfer 665 nm/620 nm; read-out: IC50 value of mTOR enzyme inhibitory activity
T1 construct: the portion corresponding to 1362-2549aa at the C terminus of human mTOR; made in house
T1 sequence (P42345 1362-2549): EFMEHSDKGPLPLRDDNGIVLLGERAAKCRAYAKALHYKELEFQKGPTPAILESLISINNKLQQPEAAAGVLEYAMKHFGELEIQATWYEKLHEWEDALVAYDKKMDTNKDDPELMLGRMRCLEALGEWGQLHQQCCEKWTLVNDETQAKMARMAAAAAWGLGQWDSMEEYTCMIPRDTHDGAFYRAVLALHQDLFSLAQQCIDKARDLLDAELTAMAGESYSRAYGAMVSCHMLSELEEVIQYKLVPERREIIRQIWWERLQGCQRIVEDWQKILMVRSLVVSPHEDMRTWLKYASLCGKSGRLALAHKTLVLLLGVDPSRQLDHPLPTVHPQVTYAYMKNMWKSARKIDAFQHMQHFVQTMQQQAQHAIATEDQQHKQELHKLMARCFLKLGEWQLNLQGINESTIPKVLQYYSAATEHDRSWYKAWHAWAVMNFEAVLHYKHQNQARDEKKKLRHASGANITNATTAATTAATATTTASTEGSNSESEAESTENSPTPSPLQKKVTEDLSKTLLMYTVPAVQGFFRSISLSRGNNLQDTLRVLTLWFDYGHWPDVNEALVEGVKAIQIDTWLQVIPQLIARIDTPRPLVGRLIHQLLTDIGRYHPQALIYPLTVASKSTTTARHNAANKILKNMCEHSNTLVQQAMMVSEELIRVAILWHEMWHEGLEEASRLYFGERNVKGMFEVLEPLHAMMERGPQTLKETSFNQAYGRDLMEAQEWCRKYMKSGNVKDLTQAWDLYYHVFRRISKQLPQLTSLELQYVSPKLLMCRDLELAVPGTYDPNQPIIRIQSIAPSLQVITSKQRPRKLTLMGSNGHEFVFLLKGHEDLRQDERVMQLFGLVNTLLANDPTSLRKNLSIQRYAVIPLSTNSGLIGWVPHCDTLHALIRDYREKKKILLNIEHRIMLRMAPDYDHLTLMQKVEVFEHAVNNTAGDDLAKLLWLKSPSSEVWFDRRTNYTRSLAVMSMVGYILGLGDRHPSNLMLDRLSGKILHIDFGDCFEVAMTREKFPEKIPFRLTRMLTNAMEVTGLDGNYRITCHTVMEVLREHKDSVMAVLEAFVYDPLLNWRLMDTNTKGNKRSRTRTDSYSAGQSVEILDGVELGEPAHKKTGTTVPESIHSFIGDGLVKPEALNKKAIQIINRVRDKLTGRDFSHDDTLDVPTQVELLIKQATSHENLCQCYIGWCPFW
Experimental: The kinase activity of mTOR was measured in the presence or absence of a test compound. A substrate peptide is phosphorylated by mTOR kinase activity. A complex of streptavidin-XL665 and anti-phosphorylated S6K (Thr389) antibody/anti-mouse IgG-cryptate binds to this phosphorylated peptide. At this moment, fluorescence resonance energy transfer takes place from antibody/anti-mouse IgG-cryptate exposed to light excitation to XL665, which results in emission of fluorescence at 665 nm. The mTOR kinase activity is detected using this principle.
(1) Sample Preparation and Enzymatic Reaction
An HEK293 cell line that constitutively expresses a His tag fused human mTOR has been established. His tag was introduced into the N terminus of the portion corresponding to 1362-2549aa at the C terminus of human mTOR. Cell lysate was prepared from this HEK293 cell line constitutively expressing His-tagged mTOR (1362C), and His-tagged mTOR (1362C) was purified using the His tag affinity according to a conventional method.
Next, an mTOR enzyme solution was prepared, which contains the aforementioned His-tagged mTOR (1362C) enzyme, 8 μg/mL of biotinylated peptide (Biotin-Ahx-[…]-amide (Sigma)), as well as 50 mM HEPES (pH 7.5), 20 mM MnCl2, 1 mg/ml BSA, an appropriate amount of protease inhibitor cocktail (Complete EDTA free, Roche), 100 ng/ml Calyculin A, 4 μg/ml Cantharidin and 10 mM DTT as other components.
The test compound was dissolved in DMSO, and serial dilutions were prepared with 20 μM ATP solution (50 mM HEPES (pH 7.5), 20 μM ATP) to achieve concentrations necessary for the assay. 5 μL of this compound solution was applied to each well of a 384 well small volume white Greiner plate.
5 μL of mTOR enzyme solution was added to the aforementioned well containing the test compound. After mixing, the mixture was incubated at room temperature for 3 hours to carry out the enzymatic reaction.
The same operation was performed with a solution of DMSO in 20 μM ATP solution as a positive control and with a solution of DMSO in 50 mM HEPES (pH 7.5) as a negative control.
(2) Detection of Enzymatic Reaction
After the enzymatic reaction, 5 μl each of an europium solution (a solution of anti-mouse IgG-cryptate (SCETI Medical Labo K.K.) and anti-phosphorylated S6K (Thr389) antibody (Cell Signaling Technology Inc.) in 50 mM HEPES (pH 7.5), 100 mM EDTA and 1.5 mg/ml BSA) and an XL665 solution (a solution of streptavidin-XL665 (SCETI Medical Labo K.K.) in 50 mM HEPES (pH 7.5), 100 mM EDTA, 0.8 M KF and 1.5 mg/ml BSA) were added in this order and then mixed. The mixture was incubated at 4° C. overnight. On the following day, the mixture was returned to room temperature and irradiated with excitation light at 337 nm. Fluorescence at 620 nm and fluorescence at 665 nm were measured with RUBYstar (BMG).
The mTOR inhibitory activity (%) was calculated using the ratio calculated from the measured values as an index of enzyme activity. Here, the ratio was calculated from the following formula (I). Ratio=10000×665 nm fluorescence value/620 nm fluorescence value (1)
The mTOR enzyme inhibitory activity (%) was calculated from the following formula (2). mTOR enzyme inhibitory activity (%)=100×[(P−S)/(P−N)] (2)
P: Ratio in well of positive control
N: Ratio in well of negative control
S: Ratio in well containing test compound
Further, an optimal curve was calculated based upon each concentration of the test compound prepared in serial dilutions and the mTOR enzyme inhibitory activity (%) at that concentration. The concentration at which 50% inhibition occurred was calculated as the IC50 value of mTOR enzyme inhibitory activity.

[2] = test system: WM-266-4 cells; assay: Cell Proliferation Inhibitory Test; type: cell-based; conditions: Homo sapiens, 72 h, cultured three days with test compound, MTT, read-out: 50% cell proliferation inhibitory activity (GI50 value)
Experimental: WM-266-4 cells (ATCC, USA) were seeded in a 96-well plate and cultured overnight. Then, serial dilutions of the sample containing the test compound were prepared, added to each well and cultured another three days. Thereafter, the cell amount in each well was measured by MTT (MOSMANN, T., Rapid colorimetric assay for cellular growth and survival: application to proliferation and cytotoxicity assays. J. Immunol. Methods, 65, 55-63 (1983)). The 50% cell proliferation inhibitory activity (GI50 value) was calculated from the following formula (3). 100×[(T−T0)/(C−T0)]=50 (3)
Here, T represents values from the test compound added wells, C represents the value from the well to which the test compound was not added for three days, and To represents an initial measured value at the time of addition of the test compound.

Row | SMILES | IC50 [1] | GI50 [2]
1 | O=c1[nH]c2ncc(-c3cnc4[nH]ccc4c3)cc2n1C[C@@H]1COC[C@H]1O (racemic) [Example 61] | < 50 nM | < 3000 nM
2 | O=c1[nH]c2ncc(-c3cnc4[nH]ccc4c3)cc2n1C[C@@H]1COC[C@@H]1O (racemic) [Example 62] | < 50 nM | < 3000 nM
3 | CO[C@H]1COC[C@H]1Cn1c(=O)[nH]c2ncc(-c3cnc4[nH]ccc4c3)cc21 (racemic) [Example 63] | < 50 nM | < 3000 nM
4 | CO[C@@H]1COC[C@H]1Cn1c(=O)[nH]c2ncc(-c3cnc4[nH]ccc4c3)cc21 (racemic) [Example 64, 1-{[trans-4-Methoxytetrahydrofuran-3-yl]methyl}-6-(1H-pyrrolo[2,3-b]pyridin-5-yl)-1,3-dihydro-2H-imidazo[4,5-b]pyridin-2-one] | < 50 nM | < 3000 nM
5 | O=c1[nH]c2ncc(-c3cnc4[nH]ccc4c3)cc2n1C[C@H]1COC[C@@H](O)C1 (racemic) [Example 65, 1-{[cis-5-Hydroxytetrahydro-2H-pyran-3-yl]methyl}-6-(1H-pyrrolo[2,3-b]pyridin-5-yl)-1,3-dihydro-2H-imidazo[4,5-b]pyridin-2-one] | < 50 nM | < 3000 nM
6 | O=c1[nH]c2ncc(-c3cnc4[nH]ccc4c3)cc2n1C[C@H]1COC[C@H](O)C1 (racemic) [Example 66, 1-{[trans-5-Hydroxytetrahydro-2H-pyran-3-yl]methyl}-6-(1H-pyrrolo[2,3-b]pyridin-5-yl)-1,3-dihydro-2H-imidazo[4,5-b]pyridin-2-one] | < 50 nM | 
7 | CO[C@@H]1COC[C@H](Cn2c(=O)[nH]c3ncc(-c4cnc5[nH]ccc5c4)cc32)C1 (racemic) [Example 67, 1-{[cis-5-Methoxytetrahydro-2H-pyran-3-yl]methyl}-6-(1H-pyrrolo[2,3-b]pyridin-5-yl)-1,3-dihydro-2H-imidazo[4,5-b]pyridin-2-one] | < 50 nM | < 3000 nM
8 | CC1(C)CC(Cn2c(=O)[nH]c3ncc(-c4cnc5[nH]ccc5c4)cc32)CCO1 (racemic) [Example 70, 1-[(2,2-Dimethyltetrahydro-2H-pyran-4-yl)methyl]-6-(1H-pyrrolo[2,3-b]pyridin-5-yl)-1,3-dihydro-2H-imidazo[4,5-b]pyridin-2-one] | < 50 nM | < 3000 nM
9 | CO[C@@H]1CCC[C@@H](Cn2c(=O)[nH]c3ncc(-c4cnc5[nH]ccc5c4)cc32)C1 (racemic) [Example 104, 1-{[trans-3-Methoxycyclohexyl]methyl}-6-(1H-pyrrolo[2,3-b]pyridin-5-yl)-1,3-dihydro-2H-imidazo[4,5-b]pyridin-2-one] | < 50 nM | < 3000 nM
10 | CO[C@H]1CCC[C@@H](Cn2c(=O)[nH]c3ncc(-c4cnc5[nH]ccc5c4)cc32)C1 (racemic) [Example 105, 1-{[cis-3-Methoxycyclohexyl]methyl}-6-(1H-pyrrolo[2,3-b]pyridin-5-yl)-1,3-dihydro-2H-imidazo[4,5-b]pyridin-2-one] | < 50 nM | < 3000 nM
11 | O=c1[nH]c2ncc(-c3cnc4[nH]ccc4c3)cc2n1C[C@H]1CC[C@H](O)CO1 (racemic) [Example 111, 2,6-Anhydro-1,3,4-trideoxy-1-[2-oxo-6-(1H-pyrrolo[2,3-b]pyridin-5-yl)-2,3-dihydro-1H-imidazo[4,5-b]pyridin-1-yl]-DL-erythro-hexitol] | < 50 nM | < 3000 nM
12 | O=c1[nH]c2ncc(-c3cnc4[nH]ccc4c3)cc2n1C[C@H]1CC[C@@H](O)CO1 (racemic) [Example 112, 2,6-Anhydro-1,3,4-trideoxy-1-[2-oxo-6-(1H-pyrrolo[2,3-b]pyridin-5-yl)-2,3-dihydro-1H-imidazo[4,5-b]pyridin-1-yl]-DL-threo-hexitol] | < 50 nM | < 3000 nM
13 | CO[C@@H]1CC[C@H](Cn2c(=O)[nH]c3ncc(-c4cnc5[nH]ccc5c4)cc32)OC1 (racemic) [Example 113, 2,6-Anhydro-1,3,4-trideoxy-5-O-methyl-1-[2-oxo-6-(1H-pyrrolo[2,3-b]pyridin-5-yl)-2,3-dihydro-1H-imidazo[4,5-b]pyridin-1-yl]-DL-threo-hexitol] | < 50 nM | < 3000 nM
14 | CO[C@H]1CCO[C@@H](Cn2c(=O)[nH]c3ncc(-c4cnc5[nH]ccc5c4)cc32)C1 (racemic) [Example 114, 2,6-Anhydro-1,3,5-trideoxy-4-O-methyl-1-[2-oxo-6-(1H-pyrrolo[2,3-b]pyridin-5-yl)-2,3-dihydro-1H-imidazo[4,5-b]pyridin-1-yl]-DL-threo-hexitol] | < 50 nM | < 3000 nM
15 | O=c1[nH]c2ncc(-c3cncc4ccccc34)cc2n1CC1CCOCC1 [Example 11, 6-Isoquinolin-4-yl-1-(tetrahydro-2H-pyran-4-ylmethyl)-1,3-dihydro-2H-imidazo[4,5-b]pyridin-2-one] | 100 to 5000 nM | 
16 | O=c1[nH]c2ncc(-c3ccnc4ccccc34)cc2n1CC1CCOCC1 [Example 12, 6-Quinolin-4-yl-1-(tetrahydro-2H-pyran-4-ylmethyl)-1,3-dihydro-2H-imidazo[4,5-b]pyridin-2-one] | 100 to 5000 nM | 
17 | O=c1[nH]c2ncc(-c3cccc4ncccc34)cc2n1CC1CCOCC1 [Example 13, 6-Quinolin-5-yl-1-(tetrahydro-2H-pyran-4-ylmethyl)-1,3-dihydro-2H-imidazo[4,5-b]pyridin-2-one] | 100 to 5000 nM | 
18 | O=c1[nH]c2ncc(-c3cnc4[nH]cnc4c3)cc2n1CC1CCOCC1 [Example 22, 1-(Tetrahydro-2H-pyran-4-ylmethyl)-1,3-dihydro-2H,3′H-6,6′-biimidazo[4,5-b]pyridin-2-one] | < 50 nM | 
19 | O=C1Cc2cc(-c3cnc4[nH]c(=O)n(CC5CCOCC5)c4c3)cnc2N1 [Example 30, 6-(2-Oxo-2,3-dihydro-1H-pyrrolo[2,3-b]pyridin-5-yl)-1-(tetrahydro-2H-pyran-4-ylmethyl)-1,3-dihydro-2H-imidazo[4,5-b]pyridin-2-one] | 100 to 5000 nM | 
20 | O=C(O)c1cc2cc(-c3cnc4[nH]c(=O)n(CC5CCOCC5)c4c3)ccc2[nH]1 [Example 80, 5-[2-Oxo-1-(tetrahydro-2H-pyran-4-ylmethyl)-2,3-dihydro-1H-imidazo[4,5-b]pyridin-6-yl]-1H-indole-2-carboxylic acid] | 100 to 5000 nM | 
21 | O=C1CCOCC1Cn1c(=O)[nH]c2ncc(-c3cnc4[nH]ccc4c3)cc21 (stereo not shown) [Example 106, 1-[(4-Oxotetrahydro-2H-pyran-3-yl)methyl]-6-(1H-pyrrolo[2,3-b]pyridin-5-yl)-1,3-dihydro-2H-imidazo[4,5-b]pyridin-2-one] | < 50 nM | 
